Laboratory results: ChEMBL document CHEMBL3745702, “Synthesis of (3S,4S)-4-aminopyrrolidine-3-ol derivatives and biological evaluation for their BACE1 inhibitory activities” (Bioorg Med Chem Lett, 2016)
Values belong to the compound of their own block, whether it stands above or below them.

What was measured:
Beta-secretase 1 [1] = target: T1, Beta-secretase 1 (Homo sapiens, UniProt P56817); experiment: Inhibition of BACE1 (unknown origin) by FRET assay
Cathepsin D [2] = target: T2, Cathepsin D (Homo sapiens, UniProt P07339); experiment: Inhibition of cathepsin D (unknown origin) at 10 uM
Cathepsin D [3] = target: T2, Cathepsin D; experiment: Inhibition of cathepsin D (unknown origin)
[4] = Permeability from apical to basolateral side in MDCK cells at 50 uM; format: ADME, cell-based, Canis lupus familiaris; details: dog
Beta-secretase 2 = target: T3, Beta-secretase 2 (Homo sapiens, UniProt Q9Y5Z0); experiment: Inhibition of BACE2 (unknown origin)
T3 sequence (Q9Y5Z0 whole entry): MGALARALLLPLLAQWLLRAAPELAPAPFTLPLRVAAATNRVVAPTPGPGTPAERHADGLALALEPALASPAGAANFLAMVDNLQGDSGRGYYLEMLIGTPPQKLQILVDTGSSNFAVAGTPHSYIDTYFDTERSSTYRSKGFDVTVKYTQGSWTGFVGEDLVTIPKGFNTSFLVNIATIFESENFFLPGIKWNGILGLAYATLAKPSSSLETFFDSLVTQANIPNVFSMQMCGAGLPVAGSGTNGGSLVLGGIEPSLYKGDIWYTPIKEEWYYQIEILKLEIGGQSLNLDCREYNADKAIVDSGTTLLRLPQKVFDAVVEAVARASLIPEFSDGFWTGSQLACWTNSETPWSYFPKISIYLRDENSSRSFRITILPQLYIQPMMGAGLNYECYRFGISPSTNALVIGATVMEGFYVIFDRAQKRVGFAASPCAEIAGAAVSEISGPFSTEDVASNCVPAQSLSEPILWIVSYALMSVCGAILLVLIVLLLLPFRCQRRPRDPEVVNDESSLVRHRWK

Beta-secretase 1 [5] = target: T1, Beta-secretase 1; experiment: Inhibition of BACE1 in […] PC12 cells expressing APP Sweden mutant; format: cell-based, PC-12
Beta-secretase 1 [6] = target: T1, Beta-secretase 1; experiment: Inhibition of BACE1 in […] PC12 cells expressing APP Sweden mutant at 10 uM; format: cell-based; details: PC-12
Beta-secretase 1 [7] = target: T1, Beta-secretase 1; experiment: Inhibition of BACE1 (unknown origin)

T2 sequence (P07339 65-162 limits assumed): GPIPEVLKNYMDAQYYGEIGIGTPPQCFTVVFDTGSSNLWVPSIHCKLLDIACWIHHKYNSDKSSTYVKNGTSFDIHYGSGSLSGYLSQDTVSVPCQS
T2 sequence (P07339 169-412 limits assumed): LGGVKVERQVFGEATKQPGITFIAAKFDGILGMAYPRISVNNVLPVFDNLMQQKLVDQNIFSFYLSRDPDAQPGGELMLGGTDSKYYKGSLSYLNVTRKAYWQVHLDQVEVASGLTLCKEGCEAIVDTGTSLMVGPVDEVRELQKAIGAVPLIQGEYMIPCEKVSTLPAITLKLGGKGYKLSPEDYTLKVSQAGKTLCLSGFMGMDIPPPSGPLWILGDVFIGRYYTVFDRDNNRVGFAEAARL
T1 sequence (P56817 whole entry): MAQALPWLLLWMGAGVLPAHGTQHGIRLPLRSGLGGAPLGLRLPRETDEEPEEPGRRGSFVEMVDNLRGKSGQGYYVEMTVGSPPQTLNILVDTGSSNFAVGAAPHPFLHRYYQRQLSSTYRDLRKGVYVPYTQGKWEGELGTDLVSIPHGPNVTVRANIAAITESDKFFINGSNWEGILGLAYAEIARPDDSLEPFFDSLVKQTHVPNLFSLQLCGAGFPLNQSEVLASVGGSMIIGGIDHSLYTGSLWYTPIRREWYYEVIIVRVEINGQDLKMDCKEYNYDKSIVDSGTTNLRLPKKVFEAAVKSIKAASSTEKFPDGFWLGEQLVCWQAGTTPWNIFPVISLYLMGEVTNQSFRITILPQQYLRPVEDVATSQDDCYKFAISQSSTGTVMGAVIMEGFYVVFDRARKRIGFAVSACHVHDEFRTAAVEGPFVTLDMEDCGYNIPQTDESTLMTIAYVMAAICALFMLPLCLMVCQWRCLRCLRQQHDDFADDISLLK

IC50 (Beta-secretase 1 [1]): 190 nM
Compound: Cc1ccc2[nH]c(N[C@H]3CN(C(=O)OC(C)(C)C)C[C@@H]3OC(=O)c3cccc(-c4ccc(F)cc4)c3)nc2c1

inhibition (Cathepsin D [2]): 4.5%
IC50 (Cathepsin D [3]): > 10 µM
Papp A→B at 50 µM [4]: 4.8 ×10⁻⁶ cm/s
IC50 (Beta-secretase 1 [1]): 660 nM
IC50 (Beta-secretase 2): 4.3 µM
IC50 (Beta-secretase 1 [5]): 3200 nM
Compound: Cc1ccc2[nH]c(N[C@H]3CNC[C@@H]3OC(=O)c3ccc(-c4ccccc4)cc3)nc2c1

IC50 (Beta-secretase 1 [1]): 730 nM
Compound: CC(C)c1ccc(CO[C@H]2CN(C(=O)OC(C)(C)C)C[C@@H]2Nc2nc3cc(F)ccc3[nH]2)cc1

IC50 (Beta-secretase 1 [1]): > 5000 nM
Compound: CC(C)c1ccc(CO[C@H]2CN(CC(N)=O)C[C@@H]2Nc2nc3cc(F)ccc3[nH]2)cc1

IC50 (Beta-secretase 1 [1]): 720 nM
Compound: CC(=O)N1C[C@H](Nc2nc3cc(C)ccc3[nH]2)[C@@H](OC(=O)c2ccc(-c3ccccc3)cc2)C1

IC50 (Beta-secretase 1 [1]): 570 nM
Compound: COC(=O)CN1C[C@H](Nc2nc3cc(C)ccc3[nH]2)[C@@H](OC(=O)c2ccc(-c3ccccc3)cc2)C1

inhibition (Cathepsin D [2]): 5.7%
IC50 (Cathepsin D [3]): > 10 µM
Papp A→B at 50 µM [4]: 13 ×10⁻⁶ cm/s
IC50 (Beta-secretase 1 [1]): 120 nM
IC50 (Beta-secretase 2): 8.9 µM
IC50 (Beta-secretase 1 [5]): 1700 nM
Compound: CC(C)(C)OC(=O)N1C[C@H](Nc2nc3cc(F)ccc3[nH]2)[C@@H](OCc2ccc(-c3ccccc3)cc2)C1

IC50 (Beta-secretase 1 [1]): 210 nM
Compound: Cc1ccc2[nH]c(N[C@H]3CN(C(=O)OC(C)(C)C)C[C@@H]3OC(=O)c3ccc(-c4ccccc4)cc3)nc2c1

IC50 (Beta-secretase 1 [1]): 1350 nM
Compound: CN(C)c1ccc(C(=O)O[C@H]2CN(C(=O)OC(C)(C)C)C[C@@H]2Nc2nc3cc(F)ccc3[nH]2)cc1

inhibition (Cathepsin D [2]): 1.4%
IC50 (Cathepsin D [3]): > 10 µM
Papp A→B at 50 µM [4]: 2.3 ×10⁻⁶ cm/s
IC50 (Beta-secretase 1 [1]): 70 nM
inhibition (Beta-secretase 1 [6]): 34%
IC50 (Beta-secretase 2): 4.4 µM
Compound: CC(C)c1ccc(C(=O)O[C@H]2CN(C(=O)OC(C)(C)C)C[C@@H]2Nc2nc3cc(F)ccc3[nH]2)cc1

IC50 (Beta-secretase 1 [1]): 3150 nM
Compound: CCCS(=O)(=O)N1C[C@H](Nc2nc3cc(F)ccc3[nH]2)[C@@H](OC(=O)c2ccc(N(C)C)cc2)C1

inhibition (Cathepsin D [2]): 4.2%
IC50 (Cathepsin D [3]): > 10 µM
Papp A→B at 50 µM [4]: 5.2 ×10⁻⁶ cm/s
IC50 (Beta-secretase 1 [1]): 390 nM
inhibition (Beta-secretase 1 [6]): 52%
IC50 (Beta-secretase 2): 5.7 µM
Compound: Cc1ccc2[nH]c(N[C@H]3CN(C(=O)c4ccccc4)C[C@@H]3OC(=O)c3ccc(-c4ccccc4)cc3)nc2c1

inhibition (Cathepsin D [2]): 1.1%
IC50 (Cathepsin D [3]): > 10 µM
Papp A→B at 50 µM [4]: 1.5 ×10⁻⁶ cm/s
IC50 (Beta-secretase 1 [1]): 50 nM
inhibition (Beta-secretase 1 [6]): 40%
IC50 (Beta-secretase 2): 10.1 µM
Compound: CC(C)(C)OC(=O)N1C[C@H](Nc2nc3cc(F)ccc3[nH]2)[C@@H](OC(=O)c2ccc(-c3ccccc3)cc2)C1

IC50 (Beta-secretase 1 [1]): 670 nM
Compound: CCCS(=O)(=O)N1C[C@H](Nc2nc3cc(F)ccc3[nH]2)[C@@H](OC(=O)c2ccc(C(C)C)cc2)C1

IC50 (Beta-secretase 1 [1]): 720 nM
Compound: CC(C)c1ccc(C(=O)O[C@H]2CN(S(=O)(=O)c3ccccc3)C[C@@H]2Nc2nc3cc(F)ccc3[nH]2)cc1

IC50 (Beta-secretase 1 [1]): 640 nM
Compound: CCCS(=O)(=O)N1C[C@H](Nc2nc3cc(F)ccc3[nH]2)[C@@H](OCc2ccc(C(C)C)cc2)C1

IC50 (Beta-secretase 1 [1]): 450 nM
Compound: COc1ccc2[nH]c(N[C@H]3CN(C(=O)OC(C)(C)C)C[C@@H]3OC(=O)c3ccc(-c4ccccc4)cc3)nc2c1

IC50 (Beta-secretase 1 [1]): 440 nM
Compound: CC(C)(C)OC(=O)N1C[C@H](Nc2nc3cc(Cl)ccc3[nH]2)[C@@H](OC(=O)c2ccc(-c3ccccc3)cc2)C1

IC50 (Beta-secretase 1 [7]): 600 nM
Compound: COc1ccc(N2CCN([C@@H]3CN(C(=O)Nc4cc(Cl)cc(Cl)c4)CC[C@H]3OC(=O)c3ccc(Oc4ccccc4)cc3)CC2)cc1

IC50 (Beta-secretase 1 [1]): 360 nM
Compound: CC(C)(C)OC(=O)N1C[C@H](Nc2nc3cc(Cl)ccc3[nH]2)[C@@H](OC(=O)c2cccc(Oc3ccccc3)c2)C1

IC50 (Beta-secretase 1 [1]): > 5000 nM
Compound: CC(C)c1ccc(CO[C@H]2CNC[C@@H]2Nc2nc3cc(F)ccc3[nH]2)cc1

IC50 (Beta-secretase 1 [1]): > 5000 nM
Compound: CC(C)c1ccc(CO[C@H]2CN(CCO)C[C@@H]2Nc2nc3cc(F)ccc3[nH]2)cc1

IC50 (Beta-secretase 1 [1]): 480 nM
Compound: CC(C)c1ccc(CO[C@H]2CN(S(=O)(=O)c3ccccc3)C[C@@H]2Nc2nc3cc(F)ccc3[nH]2)cc1
